# Results reported in patent US9695155B2, “Herbicidal substituted pyrimidinyloxy benzene compounds” (E. I. DU PONT DE NEMOURS AND COMPANY, priority 2013, dated 2017).
# What was measured:
# [1] = system: barnyardgrass; test: Test B flooded paddy test; assay type: in vivo, Echinochloa crus-galli; conditions: Flood, 250 g ai/ha, 0 to 100 scale where 0 is no effect and 100 is complete control
# How it was run: (§1)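 Plants at 2-leaf stage; pots flooded to 3 cm above soil and compound applied directly into paddy water, depth held throughout. After 13 to 15 days in greenhouse, visual rating versus controls on 0 (no effect) to 100 (complete control) scale.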
# [2] = system: blackgrass; test: Test C postemergence; assay type: in vivo, Alopecurus myosuroides
# How it was run: (§2)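 Seeds were sown in loam–sand blend and sprayed preemergence, while plants at 1- to 4-leaf stage (2–18 cm) in peat-based medium received postemergence sprays; test chemicals were formulated in a non-phytotoxic solvent with surfactant. After 13–15 days in a greenhouse, injury was rated visually against controls, 0 (no effect) to 100 (complete control).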
# [3] = system: corn; test: Test C postemergence; assay type: in vivo, Zea mays
# How it was run: as §2
# [4] = system: barnyardgrass; test: Test A preemergence; assay type: in vivo, Echinochloa crus-galli
# How it was run: (§3)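 Visual injury scored 0–100 (100 = complete control) against untreated controls about 10 days after treatment in a greenhouse. Test chemicals, formulated with surfactant in non-phytotoxic solvent, were sprayed on soil preemergence or on 2-10 cm, one- to two-leaf plants postemergence.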
# [5] = system: johnsongrass; test: Test C postemergence; assay type: in vivo, Sorghum halepense
# How it was run: as §2
# [6] = system: large (Lg) crabgrass; test: Test C postemergence; assay type: in vivo, Digitaria sanguinalis
# How it was run: as §2
# [7] = system: chickweed; test: Test C postemergence; assay type: in vivo, Stellaria media
# How it was run: as §2
# [8] = system: sedge, umbrella; test: Test B flooded paddy test; assay type: in vivo, Cyperus difformis; conditions: Flood, 250 g ai/ha; 0 to 100 scale where 0 is no effect and 100 is complete control
# How it was run: as §1
# [9] = system: pigweed; test: Test A postemergence; assay type: in vivo, Amaranthus retroflexus
# How it was run: as §3
# [10] = system: Italian ryegrass; test: Test C postemergence; assay type: in vivo, Lolium multiflorum
# How it was run: as §2
# [11] = system: pigweed; test: Test A preemergence; assay type: in vivo, Amaranthus retroflexus
# How it was run: as §3
# [12] = system: giant foxtail; test: Test A preemergence; assay type: in vivo, Setaria faberii
# How it was run: as §3
# [13] = system: giant foxtail; test: Test C postemergence; assay type: in vivo, Setaria faberii
# How it was run: as §2
# [14] = 16 g ai/ha, postemergence, 0 is no effect, 100 is complete control
# [15] = 31 g ai/ha, postemergence, visual rating, scale 0 to 100 (0 no effect, 100 complete control), 13 to 15 days
# [16] = 125 g ai/ha, postemergence, visual rating, scale 0 to 100 (0 no effect, 100 complete control)
# [17] = Postemergence, 62 g ai/ha, scale 0 to 100 (0 no effect, 100 complete control), 13 to 15 days
# [18] = 31 g ai/ha, 0 to 100 scale where 0 is no effect and 100 is complete control, visual, approximately 10 days
# [19] = 125 g ai/ha, 0 to 100 scale where 0 is no effect and 100 is complete control
# [20] = 500 g ai/ha, 0 to 100 scale where 0 is no effect and 100 is complete control
compound,measurement,setting,value
FC(F)Oc1cnn(-c2c(Cl)cccc2Oc2ncc(Cl)cn2)c1 [Compound 258],"Plant response rating, Barnyardgrass",[1],60
same,"Plant response rating (0 to 100), Blackgrass",[2]; [14],0
same,Blackgrass plant response rating,[2]; [15],5
same,"Plant response rating, Blackgrass",[2]; [16],10
same,"Plant response rating, Blackgrass",[2]; [17],5
same,"Plant response rating (0 to 100), Corn",[3]; [14],5
same,Corn plant response rating,[3]; [15],5
same,"Plant response rating, Corn",[3]; [16],20
same,"Plant response rating, Corn",[3]; [17],10
same,"Plant response rating, Barnyardgrass",[4]; [18],50
same,"Barnyardgrass plant response rating (0 to 100 scale, 0 is no effect, 100 is complete control)",[4]; 125 g ai/ha,90
same,"Plant response rating (0 to 100), Johnsongrass",[5]; [14],0
same,Johnsongrass plant response rating,[5]; [15],5
same,"Plant response rating, Johnsongrass",[5]; [16],5
same,"Plant response rating, Johnsongrass",[5]; [17],5
same,"Plant response rating (0 to 100), Crabgrass, Large",[6]; [14],5
same,"Crabgrass, Large plant response rating",[6]; [15],5
same,"Plant response rating, Crabgrass, Large",[6]; [16],15
same,"Plant response rating, Crabgrass, Large",[6]; [17],10
same,"Plant response rating (0 to 100), Chickweed",[7]; [14],50
same,Chickweed plant response rating,[7]; [15],50
same,"Plant response rating, Chickweed",[7]; [16],95
same,"Plant response rating, Chickweed",[7]; [17],90
same,"Plant response rating, Sedge, Umbrella",[8],95
same,"Plant response rating, Pigweed","[9]; 31 g ai/ha, 0 to 100 scale, 0 no effect, 100 complete control",80
same,"Plant response rating, Pigweed","[9]; 125 g ai/ha, 0 to 100 scale, 0 no effect, 100 complete control",100
same,"Plant response rating (0 to 100), Ryegrass, Italian",[10]; [14],0
same,"Ryegrass, Italian plant response rating",[10]; [15],0
same,"Plant response rating, Ryegrass, Italian",[10]; [16],30
same,"Plant response rating, Ryegrass, Italian",[10]; [17],0
same,"Plant response rating, Pigweed",[11]; [18],100
same,Pigweed plant response rating (0 to 100 scale),[11]; 125 g ai/ha,100
same,"Plant response rating, Foxtail, Giant",[12]; [18],60
same,"Foxtail, Giant plant response rating (0 to 100 scale)",[12]; 125 g ai/ha,100
same,"Plant response rating (0 to 100), Foxtail, Giant",[13]; [14],5
same,"Foxtail, Giant plant response rating",[13]; [15],20
same,"Plant response rating, Foxtail, Giant",[13]; [16],45
same,"Plant response rating, Foxtail, Giant",[13]; [17],25
"N#Cc1cccc(Oc2ncc(Cl)cn2)c1-n1cc(SC(F)(F)F)cn1 [Compound 134, 3-[(5-chloro-2-pyrimidinyl)oxy]-2-[4-(trifluoromethylthio)-1-pyrazolyl]benzonitrile]",pest or weed control at 250 g/ha,"[1]; Echinochloa crus-galli, read-out: Plant response rating, Barnyardgrass",0%
same,pest or weed control at 16 g/ha,"[2]; Alopecurus myosuroides, post-emergence, 16 g ai/ha, postemergence, 0 is no effect, 100 is complete control, read-out: Plant response rating (0 to 100), Blackgrass",5%
same,pest or weed control at 125 g/ha,"[2]; Alopecurus myosuroides, post-emergence, 125 g ai/ha, postemergence, visual rating, scale 0 to 100 (0 no effect, 100 complete control), read-out: Plant response rating, Blackgrass",10%
same,pest or weed control at 31 g/ha,"[2]; Alopecurus myosuroides, post-emergence, Postemergence, 31 g ai/ha, scale 0 to 100 (0 no effect, 100 complete control), 13 to 15 days, read-out: Plant response rating, Blackgrass",25%
same,pest or weed control at 62 g/ha,"[2]; Alopecurus myosuroides, post-emergence, Postemergence, 62 g ai/ha, scale 0 to 100 (0 no effect, 100 complete control), read-out: Plant response rating, Blackgrass",5%
same,plant injury at 16 g/ha,"[3]; Zea mays, post-emergence, 16 g ai/ha, postemergence, 0 is no effect, 100 is complete control, read-out: Plant response rating (0 to 100), Corn",5%
same,"Corn plant response rating (crop injury, 0 = no effect, 100 = complete kill) at 125 g/ha","[3]; Zea mays, post-emergence, 125 g ai/ha, postemergence, visual rating, scale 0 to 100 (0 no effect, 100 complete control)",5%
same,"Corn plant response rating (crop injury, 0 = no effect, 100 = complete kill) at 62 g/ha","[3]; Zea mays, post-emergence, Postemergence, 62 g ai/ha, scale 0 to 100 (0 no effect, 100 complete control)",10%
same,"Plant response rating, Barnyardgrass",[4]; [19],70
same,Barnyardgrass plant response rating,[4]; [20],100
same,pest or weed control at 16 g/ha,"[5]; Sorghum halepense, post-emergence, 16 g ai/ha, postemergence, 0 is no effect, 100 is complete control, read-out: Plant response rating (0 to 100), Johnsongrass",5%
same,pest or weed control at 125 g/ha,"[5]; Sorghum halepense, post-emergence, 125 g ai/ha, postemergence, visual rating, scale 0 to 100 (0 no effect, 100 complete control), read-out: Plant response rating, Johnsongrass",15%
same,pest or weed control at 62 g/ha,"[5]; Sorghum halepense, post-emergence, Postemergence, 62 g ai/ha, scale 0 to 100 (0 no effect, 100 complete control), read-out: Plant response rating, Johnsongrass",5%
same,pest or weed control at 16 g/ha,"[6]; Digitaria sanguinalis, post-emergence, 16 g ai/ha, postemergence, 0 is no effect, 100 is complete control, read-out: Plant response rating (0 to 100), Crabgrass, Large",5%
same,pest or weed control at 125 g/ha,"[6]; Digitaria sanguinalis, post-emergence, 125 g ai/ha, postemergence, visual rating, scale 0 to 100 (0 no effect, 100 complete control), read-out: Plant response rating, Crabgrass, Large",15%
same,pest or weed control at 62 g/ha,"[6]; Digitaria sanguinalis, post-emergence, Postemergence, 62 g ai/ha, scale 0 to 100 (0 no effect, 100 complete control), read-out: Plant response rating, Crabgrass, Large",10%
same,pest or weed control at 16 g/ha,"[7]; Stellaria media, post-emergence, 16 g ai/ha, postemergence, 0 is no effect, 100 is complete control, read-out: Plant response rating (0 to 100), Chickweed",45%
same,pest or weed control at 125 g/ha,"[7]; Stellaria media, post-emergence, 125 g ai/ha, postemergence, visual rating, scale 0 to 100 (0 no effect, 100 complete control), read-out: Plant response rating, Chickweed",80%
same,pest or weed control at 62 g/ha,"[7]; Stellaria media, post-emergence, Postemergence, 62 g ai/ha, scale 0 to 100 (0 no effect, 100 complete control), read-out: Plant response rating, Chickweed",55%
same,"Plant response rating, Sedge, Umbrella",[8],30
same,Pigweed plant response rating,[9]; [19],100
same,"Plant response rating, Pigweed",[9]; [20],100
same,pest or weed control at 16 g/ha,"[10]; Lolium multiflorum, post-emergence, 16 g ai/ha, postemergence, 0 is no effect, 100 is complete control, read-out: Plant response rating (0 to 100), Ryegrass, Italian",10%
same,pest or weed control at 125 g/ha,"[10]; Lolium multiflorum, post-emergence, 125 g ai/ha, postemergence, visual rating, scale 0 to 100 (0 no effect, 100 complete control), read-out: Plant response rating, Ryegrass, Italian",0%
same,pest or weed control at 62 g/ha,"[10]; Lolium multiflorum, post-emergence, Postemergence, 62 g ai/ha, scale 0 to 100 (0 no effect, 100 complete control), read-out: Plant response rating, Ryegrass, Italian",5%
same,Pigweed plant response rating,[11]; [20],100
same,pest or weed control at 125 g/ha,"[11]; Amaranthus retroflexus, pre-emergence, 125 g ai/ha, 0 to 100 scale where 0 is no effect and 100 is complete control, read-out: Plant response rating, Pigweed",100%
same,"Foxtail, Giant plant response rating",[12]; [20],100
same,pest or weed control at 125 g/ha,"[12]; Setaria faberi, pre-emergence, 240 h, 125 g ai/ha, 0 to 100 scale where 0 is no effect and 100 is complete control, read-out: Plant response rating, Foxtail, Giant",100%
same,pest or weed control at 16 g/ha,"[13]; Setaria faberi, post-emergence, 16 g ai/ha, postemergence, 0 is no effect, 100 is complete control, read-out: Plant response rating (0 to 100), Foxtail, Giant",5%
same,pest or weed control at 125 g/ha,"[13]; Setaria faberi, post-emergence, 125 g ai/ha, postemergence, visual rating, scale 0 to 100 (0 no effect, 100 complete control), read-out: Plant response rating, Foxtail, Giant",5%
same,pest or weed control at 62 g/ha,"[13]; Setaria faberi, post-emergence, Postemergence, 62 g ai/ha, scale 0 to 100 (0 no effect, 100 complete control), read-out: Plant response rating, Foxtail, Giant",5%
